For test [1], the system named is SU-DHL-6. The experiment in a line: Antiproliferative activity against human SU-DHL-6 cells assessed as cell growth inhibition incubated for 72 hrs by MTT assay. It counts as functional. For orientation: Tetrazolium assays rely on reduction of a dye to a coloured formazan, in cell work by metabolically active cells.
Test [2] has as its system SU-DHL-6. The test is described as follows: Inhibition of AKT phosphorylation in human SU-DHL-6 cells at 0.1 to 1 uM incubated for 24 hrs by Western blot analysis. It counts as cell-based. To be noted: dose 0.1-1 µM. In general terms: In western blotting, separated proteins are transferred to a membrane and probed.
The test system of another test is Pfeiffer. The experiment in a line: Antiproliferative activity against human Pfeiffer cells assessed as cell growth inhibition incubated for 72 hrs by MTT assay. Type of test: functional.
Test [3] has as its system SU-DHL-6. The experiment in a line: Inhibition of AKT phosphorylation in human SU-DHL-6 cells at higher concentration incubated for 24 hrs by Western blot analysis. Type of test: cell-based.
The test system of test [4] is SU-DHL-6. The test is described as follows: Induction of autophagy in human SU-DHL-6 cells assessed as increase in LC3-II to LC3-I ratio at 1 to 100 nM incubated for 24 hrs by Western blot analysis. It counts as functional, cell-based. To be noted: dose 1-100 nM.
Test [5] concerns SU-DHL-6. The test is described as follows: Inhibition of AKT phosphorylation in human SU-DHL-6 cells at 1 to 10000 nM incubated for 24 hrs by Western blot analysis. Type of test: cell-based. The following applies: dose 1-10000 nM.

Each structure is given as a SMILES string. Activity calls are given as the source filed them. No cut-off for these calls is given here. Where only a bound is given, the exact number is not on record here.

For the compound `COc1ncc(-c2ccc3ncnc(N[C@H]4CCN(C(=O)C5CCN(CCCCCCC(=O)N[C@H](C(=O)N6C[C@H](O)C[C@H]6C(=O)NCc6ccc(-c7scnc7C)cc6)C(C)(C)C)CC5)C4)c3n2)cc1C(=O)Oc1ccccc1`, the GI50 (as a rule, the concentration at which growth is held to half of that of the control) with SU-DHL-6 [1] was 2630 nM; in the test with Pfeiffer it was 2960 nM. Further, in the test on SU-DHL-6 [2], the inhibition entry was “Active”.

Take `COc1ncc(-c2ccc3ncnc(N[C@H]4CCN(C(=O)CCCCCCC(=O)Nc5cccc6c5CN(C5CCC(=O)NC5=O)C6=O)C4)c3c2)cc1C#N` (stereo partly drawn): the GI50 in the test with SU-DHL-6 [1] was > 10000 nM. In addition, the inhibition entry with SU-DHL-6 [2] was “inactive”.

On to `COc1ncc(-c2ccc3ncnc(N[C@H]4CCN(C(=O)CCC(=O)NCCOCCOCC(=O)Nc5cccc6c5CN(C5CCC(=O)NC5=O)C6=O)C4)c3c2)cc1C#N` (stereo partly drawn), for which the GI50 in the test on SU-DHL-6 [1] is > 10000 nM. For the same compound, the inhibition result in the test on SU-DHL-6 [2] was “inactive”.

For the compound `COc1ncc(-c2ccc3ncnc(N[C@H]4CCN(CCCCCCCC(=O)N[C@H](C(=O)N5C[C@H](O)C[C@H]5C(=O)NCc5ccc(-c6scnc6C)cc5)C(C)(C)C)C4)c3n2)cc1C(=O)Oc1ccccc1`, the results for the GI50 in the test with SU-DHL-6 [1] and in the test on Pfeiffer were 900 nM and 1280 nM, respectively. The inhibition result in the test on SU-DHL-6 [2] was “Active”.

`COc1ncc(-c2ccc3ncnc(N[C@H]4CCN(C(=O)C5CCN(CCCCCCCCCC(=O)N[C@H](C(=O)N6C[C@H](O)C[C@H]6C(=O)N[C@@H](C)c6ccc(-c7scnc7C)cc6)C(C)(C)C)CC5)C4)c3n2)cc1C(=O)Nc1ccccc1`: in the test with SU-DHL-6 [1], the GI50 was found to be 900 nM. Also, in the test on SU-DHL-6 [3], the inhibition result was “Active”.

Take `COc1ncc(-c2ccc3ncnc(N[C@H]4CCN(C(=O)C5CCN(CCCCCCCCCCCCC(=O)N[C@H](C(=O)N6C[C@H](O)C[C@H]6C(=O)NCc6ccc(-c7scnc7C)cc6)C(C)(C)C)CC5)C4)c3n2)cc1C(=O)Oc1ccccc1`: the figures for the GI50 with SU-DHL-6 [1] and in the test with Pfeiffer were 480 nM and 1060 nM, respectively. In the test on SU-DHL-6 [2], the inhibition result was “Active”.

Take `COc1ncc(-c2ccc3ncnc(N[C@H]4CCN(CCCCCCC(=O)N[C@H](C(=O)N5C[C@H](O)C[C@H]5C(=O)NCc5ccc(-c6scnc6C)cc5)C(C)(C)C)C4)c3n2)cc1C(=O)Oc1ccccc1`: the GI50 stood at 1230 nM with SU-DHL-6 [1] and 1410 nM in the test with Pfeiffer. The inhibition result in the test with SU-DHL-6 [2] is “Active”.

For the compound `COc1ncc(-c2ccc3ncnc(N[C@H]4CCN(C(=O)C5CCN(C(=O)CCCCCCCCCN[C@H](C(=O)N6C[C@H](O)C[C@H]6C(=O)NCc6ccc(-c7scnc7C)cc6)C(C)(C)C)CC5)C4)c3n2)cc1C(=O)Oc1ccccc1`, the GI50 is 300 nM with SU-DHL-6 [1] and > 10000 nM in the test with Pfeiffer. Also, the inhibition result in the test on SU-DHL-6 [2] is “Active”.

Take `COc1ncc(-c2ccc3ncnc(N[C@H]4CCN(C(=O)C5CCN(CCCCCCCCCCCC(=O)N[C@H](C(=O)N6C[C@H](O)C[C@H]6C(=O)NCc6ccc(-c7scnc7C)cc6)C(C)(C)C)CC5)C4)c3n2)cc1C(=O)Oc1ccccc1`: the GI50 stood at 400 nM with SU-DHL-6 [1] and 1940 nM with Pfeiffer. In the test with SU-DHL-6 [2], the inhibition entry was “Active”.

For `COc1ncc(-c2ccc3ncnc(N[C@H]4CCN(CCCCCCCCCC(=O)N[C@H](C(=O)N5C[C@H](O)C[C@H]5C(=O)NCc5ccc(-c6scnc6C)cc5)C(C)(C)C)C4)c3n2)cc1C(=O)Oc1ccccc1`, the GI50 in the test on SU-DHL-6 [1] amounted to 2480 nM; in the test with Pfeiffer, 1370 nM. Also, the inhibition result in the test with SU-DHL-6 [2] is “Active”.

On to `COc1ncc(-c2ccc3ncnc(N[C@H]4CCN(C(=O)C5CCN(CCCCCCCCC(=O)N[C@H](C(=O)N6C[C@H](O)C[C@H]6C(=O)NCc6ccc(-c7scnc7C)cc6)C(C)(C)C)CC5)C4)c3n2)cc1C(=O)Oc1ccccc1`, for which the GI50 with SU-DHL-6 [1] is 730 nM; in the test on Pfeiffer, 600 nM. The inhibition entry with SU-DHL-6 [2] was “Active”.

For the compound `COc1ncc(-c2ccc3ncnc(N[C@H]4CCN(C(=O)CCCCCC(=O)Nc5cccc6c5CN(C5CCC(=O)NC5=O)C6=O)C4)c3c2)cc1C#N` (stereo partly drawn), the GI50 in the test on SU-DHL-6 [1] is > 10000 nM. In addition, the inhibition entry in the test on SU-DHL-6 [2] was “inactive”.

As to `COc1ncc(-c2ccc3ncnc(N[C@H]4CCN(C(=O)CCCCCCC(=O)N[C@H](C(=O)N5C[C@H](O)C[C@H]5C(=O)NCc5ccc(-c6scnc6C)cc5)C(C)(C)C)C4)c3c2)cc1C#N`, the GI50 with SU-DHL-6 [1] was > 10000 nM. Also, in the test on SU-DHL-6 [2], the inhibition entry was “inactive”.

For `COc1ncc(-c2ccc3ncnc(N[C@H]4CCN(C(=O)CCC(=O)NCCCCCC(=O)Nc5cccc6c5CN(C5CCC(=O)NC5=O)C6=O)C4)c3c2)cc1C#N` (stereo partly drawn), the GI50 in the test with SU-DHL-6 [1] was > 10000 nM. Moreover, the inhibition entry with SU-DHL-6 [2] was “inactive”.

With `COc1ncc(-c2ccc3ncnc(N[C@H]4CCN(C(=O)CCC(=O)NCCC(=O)Nc5cccc6c5CN(C5CCC(=O)NC5=O)C6=O)C4)c3c2)cc1C#N` (stereo partly drawn), the GI50 in the test with SU-DHL-6 [1] is > 10000 nM. Further, the inhibition result in the test on SU-DHL-6 [2] is “inactive”.

In the case of `COc1ncc(-c2ccc3ncnc(N[C@H]4CCN(C(=O)CCC(=O)NCCCC(=O)Nc5cccc6c5CN(C5CCC(=O)NC5=O)C6=O)C4)c3c2)cc1C#N` (stereo partly drawn), in the test with SU-DHL-6 [1], the GI50 was > 10000 nM. For the same compound, the inhibition entry with SU-DHL-6 [2] is “inactive”.

Turning to `COc1ncc(-c2ccc3ncnc(N[C@H]4CCN(CCCCCCCCC(=O)N[C@H](C(=O)N5C[C@H](O)C[C@H]5C(=O)NCc5ccc(-c6scnc6C)cc5)C(C)(C)C)C4)c3n2)cc1C(=O)Oc1ccccc1`, the GI50 was found to be 1370 nM with SU-DHL-6 [1] and 1250 nM in the test on Pfeiffer. The inhibition result in the test with SU-DHL-6 [2] was “Active”.

For `COc1ncc(-c2ccc3ncnc(N[C@H]4CCN(C(=O)CCCCC(=O)Nc5cccc6c5CN(C5CCC(=O)NC5=O)C6=O)C4)c3c2)cc1C#N` (stereo partly drawn), in the test on SU-DHL-6 [1], the GI50 was > 10000 nM. Moreover, in the test on SU-DHL-6 [2], the inhibition result was “inactive”.

Turning to `COc1ncc(-c2ccc3ncnc(N[C@H]4CCN(C(=O)CCC(=O)NCC(=O)Nc5cccc6c5CN(C5CCC(=O)NC5=O)C6=O)C4)c3c2)cc1C#N` (stereo partly drawn), the GI50 in the test with SU-DHL-6 [1] was > 10000 nM. Moreover, the inhibition result in the test with SU-DHL-6 [2] was “inactive”.

As to `COc1ncc(-c2ccc3ncnc(N[C@H]4CCN(C(=O)C5CCN(CCCCCCCCCCC(=O)N[C@H](C(=O)N6C[C@H](O)C[C@H]6C(=O)NCc6ccc(-c7scnc7C)cc6)C(C)(C)C)CC5)C4)c3n2)cc1C(=O)Oc1ccccc1`, the GI50 in the test on SU-DHL-6 [1] came out at 180 nM; with Pfeiffer, 340 nM. In the test with SU-DHL-6 [4], the result was Active. Further, the inhibition result in the test with SU-DHL-6 [2] and in the test on SU-DHL-6 [5] was “Active” throughout.

Take `COc1ncc(-c2ccc3ncnc(N[C@H]4CCN(C(=O)C5CCN(CCCCCC(=O)N[C@H](C(=O)N6C[C@H](O)C[C@H]6C(=O)NCc6ccc(-c7scnc7C)cc6)C(C)(C)C)CC5)C4)c3n2)cc1C(=O)Oc1ccccc1`: the results for the GI50 in the test on SU-DHL-6 [1] and with Pfeiffer were 2470 nM and > 10000 nM, respectively. In the test with SU-DHL-6 [2], the inhibition entry was “Active”.

With `COc1ncc(-c2ccc3ncnc(N[C@H]4CCN(C(=O)C5CCN(CCCCCCCCCC(=O)N[C@H](C(=O)N6C[C@@H](O)C[C@H]6C(=O)N[C@@H](C)c6ccc(-c7scnc7C)cc6)C(C)(C)C)CC5)C4)c3n2)cc1C(=O)Oc1ccccc1`, the GI50 in the test with SU-DHL-6 [1] was determined as 870 nM. For the same compound, in the test with SU-DHL-6 [3], the inhibition entry is “Active”.

Regarding `COc1ncc(-c2ccc3ncnc(N[C@H]4CCN(C(=O)C5CCN(CCCCCCCCCC(=O)Nc6cccc7c6CN(C6CCC(=O)NC6=O)C7=O)CC5)C4)c3n2)cc1C(=O)Oc1ccccc1` (stereo partly drawn), the GI50 is 490 nM in the test with SU-DHL-6 [1] and > 10000 nM in the test with Pfeiffer. The inhibition entry with SU-DHL-6 [2] is “Active”.

As to `COc1ncc(-c2ccc3ncnc(N[C@H]4CCN(C(=O)C5CCN(CCCCCCCC(=O)N[C@H](C(=O)N6C[C@H](O)C[C@H]6C(=O)NCc6ccc(-c7scnc7C)cc6)C(C)(C)C)CC5)C4)c3n2)cc1C(=O)Oc1ccccc1`, the GI50 turned out to be 760 nM with SU-DHL-6 [1] and 770 nM with Pfeiffer. In addition, the inhibition entry with SU-DHL-6 [2] is “Active”.
